The values below come from patent US20160083357A1, “NOVEL TETRAZOLONE DERIVATIVES” (Hoffmann-La Roche Inc., priority 2013, published 2016).

For one test, the target named is T1, human CB2 receptors (Homo sapiens, UniProt P34972).
T1 construct: expressed in transfected cells; host or cells: CHO cells
The test can be described thus: cAMP assay, human CB2. Type of test: cell-based. How it is done:
(§1) CHO cells expressing human CB1 or CB2 receptors are seeded 17-24 hours prior to the experiment 50.000 cells per well in a black 96 well plate with flat clear bottom (Corning Costar #3904) in DMEM (Invitrogen No. 31331), lx HT supplement, with 10% fetal calf serum and incubated at 5% CO2 and 37° C. in a humidified incubator. The growth medium was exchanged with Krebs Ringer Bicarbonate buffer with 1 mM IBMX and incubated at 30° C. for 30 min. Compounds were added to a final assay volume of 100 μl and incubated for 30 min at 30° C. Using the cAMP-Nano-TRF detection kit the assay (Roche Diagnostics) was stopped by the addition of 50 μl lysis reagent (Tris, NaCl, 1.5% Triton X100, 2.5% NP40, 10% NaN3) and 50 μl detection solutions (20 μM mAb Alexa700-cAMP 1:1, and 48 μM Ruthenium-2-AHA-cAMP) and shaken for 2 h at room temperature. The time-resolved energy transfer is measured by a TRF reader (Evotec Technologies GmbH), equipped with a ND:YAG laser as excitation source. The plate is measured twice with the excitation at 355 nm and at the emission with a delay of 100 ns and a gate of 100 ns, total exposure time 10 s at 730 (bandwidth 30 nm) or 645 nm (bandwidth 75 nm), respectively. The FRET signal is calculated as follows: FRET=T730-Alexa730-P(T645-B645) with P=Ru730-B730/Ru645-B645, where T730 is the test well measured at 730 nM, T645 is the test well measured at 645 nm, B730 and B645 are the buffer controls at 730 nm and 645 nm, respectively. cAMP content is determined from the function of a standard curve spanning from 10 μM to 0.13 nM cAMP.
(§2) EC50 values were determined using Activity Base analysis (ID Business Solution, Limited). The EC50 values for a wide range of cannabinoid agonists generated from this assay were in agreement with the values published in the scientific literature.
(cAMP levels reflect the balance of adenylyl cyclase and phosphodiesterase activity.)

Another test addresses T2, human CB1 receptors (Homo sapiens, UniProt P21554).
T2 construct: expressed in transfected cells; host or cells: CHO cells
The test can be described thus: cAMP assay, human CB1. The test is classed as cell-based. How it is done:
as §1, §2

Setting [1] is: functional cAMP assay, CHO cells expressing human CB2, read-out: Ec50: CB2 - hu cAMP.
The mark [2] stands for this setting: functional cAMP assay, CHO cells expressing human CB1, read-out: Ec50: CB1 - hu cAMP.

Usually EC50 stands for the concentration giving half of the maximal effect.

Read-outs that look alike come from different tables or passages of the source. Some results are limits rather than exact numbers.

T2 sequence (P21554 whole entry): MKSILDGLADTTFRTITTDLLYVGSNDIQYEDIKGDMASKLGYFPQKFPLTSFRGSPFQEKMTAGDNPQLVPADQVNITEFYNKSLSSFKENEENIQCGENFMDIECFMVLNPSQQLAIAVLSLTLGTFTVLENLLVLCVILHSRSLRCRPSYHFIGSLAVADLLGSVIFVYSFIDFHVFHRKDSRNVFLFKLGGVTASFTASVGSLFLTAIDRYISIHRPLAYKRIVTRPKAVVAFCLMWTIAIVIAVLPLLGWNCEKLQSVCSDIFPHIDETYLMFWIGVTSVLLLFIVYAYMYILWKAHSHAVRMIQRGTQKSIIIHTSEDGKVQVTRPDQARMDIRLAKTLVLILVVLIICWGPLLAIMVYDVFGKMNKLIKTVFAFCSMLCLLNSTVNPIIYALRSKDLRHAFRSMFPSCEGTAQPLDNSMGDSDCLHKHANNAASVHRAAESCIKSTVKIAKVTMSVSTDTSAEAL
T1 sequence (P34972 whole entry): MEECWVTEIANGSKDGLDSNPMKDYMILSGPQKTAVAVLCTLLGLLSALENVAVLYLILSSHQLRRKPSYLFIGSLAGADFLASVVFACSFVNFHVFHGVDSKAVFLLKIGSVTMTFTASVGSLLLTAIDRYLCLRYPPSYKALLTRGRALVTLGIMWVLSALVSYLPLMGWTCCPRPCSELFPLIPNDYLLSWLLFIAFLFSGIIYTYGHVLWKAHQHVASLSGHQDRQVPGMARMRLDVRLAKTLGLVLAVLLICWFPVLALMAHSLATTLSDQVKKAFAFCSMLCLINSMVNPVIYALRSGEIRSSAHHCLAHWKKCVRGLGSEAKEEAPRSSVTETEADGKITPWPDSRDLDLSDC

With `COCCN(C(=O)n1nnn(-c2cccc(Cl)c2)c1=O)C(C)C` [Example 83, 4-(3-Chloro-phenyl)-5-oxo-4,5-dihydro-tetrazole-1-carboxylic acid isopropyl-(2-methoxy-ethyl)-amide], the EC50 at human CB2 receptors is 5.3 nM; on human CB1 receptors, over 10 µM.
Take `CC(=O)N1CCN(C(=O)n2nnn(-c3cccc(F)c3)c2=O)CC1` [Example 38, 1-(4-Acetyl-piperazine-1-carbonyl)-4-(3-fluoro-phenyl)-1,4-dihydro-tetrazol-5-one]: the half-maximal effective concentration (EC50) at human CB2 receptors (setting [1]) is 92 nM; at human CB1 receptors (setting [2]) it was over 10 µM.
Taken in the same sequence, the figures for `CCOCCN(CC)C(=O)n1nnn(-c2cccc(OC(F)(F)F)c2)c1=O` [Example 99, 5-Oxo-4-(3-trifluoromethoxy-phenyl)-4,5-dihydro-tetrazole-1-carboxylic acid (2-ethoxy-ethyl)-ethyl-amide] were 12.5 nM and over 10 µM.
Consider `CCCCNC(=O)CN1CCN(C(=O)n2nnn(-c3ccc(Cl)cc3)c2=O)CC1` [Example 109, N-Butyl-2-{4-[4-(4-chloro-phenyl)-5-oxo-4,5-dihydro-tetrazole-1-carbonyl]-piperazin-1-yl}-acetamide], for which the EC50 is 4.2 nM on human CB2 receptors (setting [1]) and over 10 µM at human CB1 receptors (setting [2]).
`Cc1ccc(-n2nnn(C(=O)N3CCOCC3)c2=O)cc1` [Example 128, 1-(4-methylphenyl)-4-(morpholine-4-carbonyl)tetrazol-5-one]: the values for the EC50 on human CB2 receptors (setting [1]) and at human CB1 receptors (setting [2]) were 6.6 nM and over 10 µM, respectively.
On to `CCN(C(C)=O)C1CCN(C(=O)n2nnn(-c3cccc(F)c3)c2=O)C1` (stereo not drawn) [Example 44, N-Ethyl-N-{1-[4-(3-fluoro-phenyl)-5-oxo-4,5-dihydro-tetrazole-1-carbonyl]-pyrrolidin-3-yl}-acetamide], for which the EC50 at human CB2 receptors (setting [1]) was 13.8 nM; on human CB1 receptors (setting [2]), over 10 µM.
As for `O=C(CN1CCN(C(=O)n2nnn(-c3cccc(OC(F)(F)F)c3)c2=O)CC1)N1CCOCC1` [Example 90, 1-[4-(2-Morpholin-4-yl-2-oxo-ethyl)-piperazine-1-carbonyl]-4-(3-trifluoromethoxy-phenyl)-1,4-dihydro-tetrazol-5-one], the EC50 at human CB2 receptors (setting [1]) was 67 nM; on human CB1 receptors (setting [2]), over 10 µM.
Consider `CN(CCCc1ccccc1)C(=O)n1nnn(-c2cccc(F)c2)c1=O` [Example 8, 4-(3-Fluoro-phenyl)-5-oxo-4,5-dihydro-tetrazole-1-carboxylic acid methyl-(3-phenyl-propyl)-amide], for which the EC50 was 1.2 nM at human CB2 receptors (setting [1]) and over 10 µM at human CB1 receptors (setting [2]).
On to `Cn1nccc1C1CCCN1C(=O)n1nnn(-c2cccc(F)c2)c1=O` (stereo not drawn) [Example 18, 1-(3-Fluoro-phenyl)-4-[2-(2-methyl-2H-pyrazol-3-yl)-pyrrolidine-1-carbonyl]-1,4-dihydro-tetrazol-5-one], for which the EC50 on human CB2 receptors (setting [1]) was 219 nM; on human CB1 receptors (setting [2]) it was over 10 µM.
Consider `O=C(CN1CCN(C(=O)n2nnn(-c3ccc(Cl)cc3)c2=O)CC1)N1CCCC1` [Example 97, 1-(4-Chloro-phenyl)-4-[4-(2-oxo-2-pyrrolidin-1-yl-ethyl)-piperazine-1-carbonyl]-1,4-dihydro-tetrazol-5-one], for which the EC50 at human CB2 receptors (setting [1]) is 12.9 nM; on human CB1 receptors (setting [2]) it was over 10 µM.
In the case of `CCN(C(C)=O)C1CCN(C(=O)n2nnn(-c3cccc(Cl)c3)c2=O)C1` (stereo not drawn) [Example 71, N-{1-[4-(3-Chloro-phenyl)-5-oxo-4,5-dihydro-tetrazole-1-carbonyl]-pyrrolidin-3-yl}-N-ethyl-acetamide], the EC50 is 16.7 nM at human CB2 receptors (setting [1]) and over 10 µM on human CB1 receptors (setting [2]).
As to `COCCCN(C)C(=O)n1nnn(-c2ccc(Cl)cc2)c1=O` [Example 88, 4-(4-Chloro-phenyl)-5-oxo-4,5-dihydro-tetrazole-1-carboxylic acid (3-methoxy-propyl)-methyl-amide], the EC50 was 1.9 nM on human CB2 receptors (setting [1]) and over 10 µM on human CB1 receptors (setting [2]).
Take `CC1(C)CCCN1C(=O)n1nnn(-c2cccc(F)c2)c1=O` [Example 46, 1-(2,2-Dimethyl-pyrrolidine-1-carbonyl)-4-(3-fluoro-phenyl)-1,4-dihydro-tetrazol-5-one]: the EC50 on human CB2 receptors (setting [1]) was 90.2 nM; on human CB1 receptors (setting [2]) it was over 10 µM.
With `COc1cccc(-n2nnn(C(=O)N3CCOCC3)c2=O)c1` [Example 129, 1-(3-methoxyphenyl)-4-(morpholine-4-carbonyl)tetrazol-5-one], the results for the EC50 at human CB2 receptors (setting [1]) and on human CB1 receptors (setting [2]) were 9.1 nM and over 10 µM, respectively.
Consider `CCOC(=O)N1CCN(C(=O)n2nnn(-c3cccc(F)c3)c2=O)CC1` [Example 50, 4-[4-(3-Fluoro-phenyl)-5-oxo-4,5-dihydro-tetrazole-1-carbonyl]-piperazine-1-carboxylic acid ethyl ester], for which the figures for the EC50 at human CB2 receptors (setting [1]) and on human CB1 receptors (setting [2]) were 567 nM and over 10 µM, respectively.
Taken in the same sequence, the figures for `O=C(N1CCCC1c1ccc(F)cc1)n1nnn(-c2cccc(F)c2)c1=O` (stereo not drawn) [Example 10, 1-(3-Fluoro-phenyl)-4-[2-(4-fluoro-phenyl)-pyrrolidine-1-carbonyl]-1,4-dihydro-tetrazol-5-one] were 5.9 nM and over 10 µM.
Regarding `O=C(N1CCC(c2ccccc2)C1)n1nnn(-c2cccc(F)c2)c1=O` (stereo not drawn) [Example 41, 1-(3-Fluoro-phenyl)-4-(3-phenyl-pyrrolidine-1-carbonyl)-1,4-dihydro-tetrazol-5-one], the figures for the EC50 on human CB2 receptors (setting [1]) and at human CB1 receptors (setting [2]) were 3.2 nM and over 10 µM, respectively.
As for `CC1(C)CCN(C(=O)n2nnn(-c3cccc(OC(F)(F)F)c3)c2=O)CC1` [Example 78, 1-(4,4-Dimethyl-piperidine-1-carbonyl)-4-(3-trifluoromethoxy-phenyl)-1,4-dihydro-tetrazol-5-one], the EC50 at human CB2 receptors (setting [1]) was 1.5 nM; at human CB1 receptors (setting [2]), over 10 µM.
Regarding `Cc1cc(C2CCCN2C(=O)n2nnn(-c3ccc(Cl)cc3)c2=O)on1` (stereo not drawn) [Example 76, 1-(4-Chloro-phenyl)-4-[2-(3-methyl-isoxazol-5-yl)-pyrrolidine-1-carbonyl]-1,4-dihydro-tetrazol-5-one], the EC50 at human CB2 receptors (setting [1]) is 7.4 nM; on human CB1 receptors (setting [2]), over 10 µM.
Take `O=C(N1CCOCC1)n1nnn(-c2ccc(F)c(F)c2)c1=O` [Example 125, 1-(3,4-difluorophenyl)-4-(morpholine-4-carbonyl)tetrazol-5-one]: the EC50 on human CB2 receptors (setting [1]) was 7 nM; at human CB1 receptors (setting [2]), over 10 µM.
For the compound `N#C[C@H]1CCCN1C(=O)n1nnn(-c2cccc(F)c2)c1=O` [Example 52, (R)-1-[4-(3-Fluoro-phenyl)-5-oxo-4,5-dihydro-tetrazole-1-carbonyl]-pyrrolidine-2-carbonitrile], the EC50 at human CB2 receptors (setting [1]) is 129 nM; on human CB1 receptors (setting [2]), over 10 µM.
Regarding `CCN(Cc1ccccc1)C(=O)n1nnn(-c2cccc(F)c2)c1=O` [Example 12, 4-(3-Fluoro-phenyl)-5-oxo-4,5-dihydro-tetrazole-1-carboxylic acid benzyl-ethyl-amide], the half-maximal effective concentration (EC50) on human CB2 receptors was 0.6 nM; on human CB1 receptors it was over 10 µM.
For the compound `O=C(N1CCOCC1)n1nnn(-c2cccc(OC(F)(F)F)c2)c1=O` [Example 102, 1-(Morpholine-4-carbonyl)-4-(3-trifluoromethoxy-phenyl)-1,4-dihydro-tetrazol-5-one], the EC50 at human CB2 receptors (setting [1]) was 4.4 nM; at human CB1 receptors (setting [2]), over 10 µM.
On to `Cn1ccc2c(-n3nnn(C(=O)N4CCOCC4)c3=O)cccc21` [Example 132, 1-(1-methylindol-4-yl)-4-(morpholine-4-carbonyl)tetrazol-5-one], for which the EC50 on human CB2 receptors (setting [1]) was 7.6 nM; at human CB1 receptors (setting [2]), over 10 µM.
